Values joined by “and” are separate entries in the source; they are usually repeats but may differ in a detail not shown here. Equal values may be shown once. Inconclusive results and toxic doses are left out. No stated cut-off is given here; in the data, active means T/C of 150% or more; inactive means T/C below 125%.
System: L1210 leukemia ip in BDF1 mice, survival T/C
Assay: NCI In Vivo Anticancer Drug Screen. Data for tumor model L1210 Leukemia (intraperitoneal) in B6D2F1 (BDF1) mice
Conditions: endpoint: mean survival time, higher = longer survival
Method in brief: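 Mice bearing the transplanted tumor received compound or vehicle. Survival of the treated group was divided by that of the vehicle-treated control group to give the ratio.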

[1] = dose: 100.0 mg/kg/injection, schedule: Q04DX003 (ip), vehicle: saline with Tween-80
[2] = dose: 200.0 mg/kg/injection, schedule: Q04DX003 (ip), vehicle: saline with Tween-80
[3] = dose: 400.0 mg/kg/injection, schedule: Q04DX003 (ip), vehicle: saline with Tween-80
[4] = dose: 100.0 mg/kg/injection, schedule: Q01DX001 (ip), vehicle: saline
[5] = dose: 100.0 mg/kg/injection, schedule: Q04DX003 (ip), vehicle: saline
[6] = dose: 200.0 mg/kg/injection, schedule: Q01DX001 (ip), vehicle: saline
[7] = dose: 400.0 mg/kg/injection, schedule: Q01DX001 (ip), vehicle: saline
[8] = dose: 100.0 mg/kg/injection, schedule: Q01DX001 (ip), vehicle: saline with Tween-80
[9] = dose: 200.0 mg/kg/injection, schedule: Q01DX001 (ip), vehicle: saline with Tween-80
[10] = dose: 400.0 mg/kg/injection, schedule: Q01DX001 (ip), vehicle: saline with Tween-80
[11] = dose: 100.0 mg/kg/injection, schedule: Q01DX001 (ip), vehicle: Klucel (hydroxypropylcellulose) (HPC)
[12] = dose: 200.0 mg/kg/injection, schedule: Q01DX001 (ip), vehicle: Klucel (hydroxypropylcellulose) (HPC)
[13] = dose: 400.0 mg/kg/injection, schedule: Q01DX001 (ip), vehicle: Klucel (hydroxypropylcellulose) (HPC)
[14] = dose: 150.0 mg/kg/injection, schedule: Q01DX009 (ip), vehicle: Klucel (hydroxypropylcellulose) (HPC)
[15] = dose: 100.0 mg/kg/injection, schedule: Q04DX002 (ip), vehicle: Klucel (hydroxypropylcellulose) (HPC)
[16] = dose: 200.0 mg/kg/injection, schedule: Q04DX002 (ip), vehicle: Klucel (hydroxypropylcellulose) (HPC)

Measured: T/C

CC(=O)OC1CCCC(OCC(C)C)O1 (stereo not given)
inactive: dose: 40.0 mg/kg/injection, schedule: Q01DX Z (ip), vehicle: saline 94 % of control | dose: 60.0 mg/kg/injection, schedule: Q01DX Z (ip), vehicle: saline 92 % of control

CCC(C)C1(C)OC1C(=O)OC (stereo not given)
inactive: dose: 100.0 mg/kg/injection, schedule: Q01DX009 (ip), vehicle: saline with Tween-80 93 % of control | [1] 100 % of control | dose: 200.0 mg/kg/injection, schedule: Q01DX009 (ip), vehicle: saline with Tween-80 86 % of control | [2] 101 % of control | [3] 97 % of control

CCC(=O)c1ccc(OC(C)=O)c(OC(C)=O)c1
inactive: dose: 50.0 mg/kg/injection, schedule: Q01DX001 (ip), vehicle: saline 101 % of control | [4] 101 % of control | [5] 100 % of control | [6] 109 % of control | dose: 200.0 mg/kg/injection, schedule: Q04DX003 (ip), vehicle: saline 97 % of control | [7] 97 % of control | dose: 400.0 mg/kg/injection, schedule: Q04DX003 (ip), vehicle: saline 100 % of control

CCOC(=O)C(=O)c1c2cn(O)nc(OC)c-2nc1[N+](=O)[O-]
inactive: dose: 12.5 mg/kg/injection, schedule: Q04DX002 (ip), vehicle: saline with Tween-80 89 % of control | dose: 25.0 mg/kg/injection, schedule: Q04DX002 (ip), vehicle: saline with Tween-80 96 % of control | dose: 50.0 mg/kg/injection, schedule: Q04DX002 (ip), vehicle: saline with Tween-80 96 % of control

CC(C)OCCCN=C(N)N
inactive: dose: 12.5 mg/kg/injection, schedule: Q01DX009 (ip), vehicle: saline 100 % of control | dose: 25.0 mg/kg/injection, schedule: Q01DX009 (ip), vehicle: saline 98 % of control | dose: 25.0 mg/kg/injection, schedule: Q04DX003 (ip), vehicle: saline 101 % of control | dose: 50.0 mg/kg/injection, schedule: Q01DX009 (ip), vehicle: saline 102 % of control and 104 % of control | dose: 50.0 mg/kg/injection, schedule: Q04DX003 (ip), vehicle: saline 96 % of control | [5] 96 % of control

COc1ccc(CC/C(=N/O)c2ccccc2)cc1
inactive: dose: 50.0 mg/kg/injection, schedule: Q01DX001 (ip), vehicle: other 94 % of control | dose: 100.0 mg/kg/injection, schedule: Q01DX001 (ip), vehicle: other 100 % of control | dose: 200.0 mg/kg/injection, schedule: Q01DX001 (ip), vehicle: other 90 % of control | dose: 400.0 mg/kg/injection, schedule: Q01DX001 (ip), vehicle: other 102 % of control

CN(C)C(=O)Nc1cccc(OC(=O)NC2CCCC2)c1
inactive: [1] 100 % of control | [2] 95 % of control | [3] 100 % of control

CC1CS(=O)(=O)O1 (stereo not given)
inactive: dose: 100.0 mg/kg/injection, schedule: Q04DX002 (ip), vehicle: saline with Tween-80 114 % of control | dose: 200.0 mg/kg/injection, schedule: Q04DX002 (ip), vehicle: saline with Tween-80 105 % of control

O=C(Nc1ccc(C2=NCCN2)cc1)c1cccc(NC(=S)Nc2ccc(C3=NCCN3)cc2)c1
inactive: dose: 5.0 mg/kg/injection, schedule: Q01DX Z (ip), vehicle: saline 107 % of control and 122 % of control | dose: 20.0 mg/kg/injection, schedule: Q01DX Z (ip), vehicle: saline 102 % of control and 113 % of control | dose: 60.0 mg/kg/injection, schedule: Q01DX Z (oral), vehicle: saline 103 % of control | dose: 120.0 mg/kg/injection, schedule: Q01DX Z (oral), vehicle: saline 111 % of control

Cc1nc(C)c(-c2ccc([N+](=O)[O-])cc2)o1
inactive: [8] 105 % of control | [9] 105 % of control | [10] 102 % of control

Cc1cccc(N=Nc2c(C)nc(N)nc2C)c1C
inactive: dose: 100.0 mg/kg/injection, schedule: Q04DX003 (ip), vehicle: other 94 % of control | dose: 200.0 mg/kg/injection, schedule: Q04DX003 (ip), vehicle: other 96 % of control | dose: 400.0 mg/kg/injection, schedule: Q04DX003 (ip), vehicle: other 93 % of control

CCOC(=O)c1ccc(NCc2cnc(N)nc2N)cc1
inactive: [4] 97 % of control | [6] 90 % of control | [7] 90 % of control

O=C(CNC(=O)c1ccc(Cl)cc1)NO
inactive: [11] 96 % of control | [12] 102 % of control | [13] 96 % of control

CC1CC(=O)C2CC(Cl)CCC2(C)C1C (stereo not given)
inactive: [1] 101 % of control | [14] 91 % of control | dose: 225.0 mg/kg/injection, schedule: Q01DX009 (ip), vehicle: Klucel (hydroxypropylcellulose) (HPC) 97 % of control

C[N+](C)(C)CCS(=O)(=O)Cc1ccccc1
inactive: dose: 75.0 mg/kg/injection, schedule: Q01DX001 (ip), vehicle: carboxymethylcellulose (CMC) 110 % of control | dose: 150.0 mg/kg/injection, schedule: Q01DX001 (ip), vehicle: carboxymethylcellulose (CMC) 108 % of control | dose: 300.0 mg/kg/injection, schedule: Q01DX001 (ip), vehicle: carboxymethylcellulose (CMC) 96 % of control

O=S1(=O)C=C(Cl)C2C3CC(C(Cl)C3Cl)C21 (stereo not given)
inactive: dose: 5.0 mg/kg/injection, schedule: Q01DX009 (ip), vehicle: carboxymethylcellulose (CMC) 94 % of control | dose: 10.0 mg/kg/injection, schedule: Q01DX001 (ip), vehicle: carboxymethylcellulose (CMC) 94 % of control | dose: 10.0 mg/kg/injection, schedule: Q01DX009 (ip), vehicle: carboxymethylcellulose (CMC) 94 % of control | dose: 10.0 mg/kg/injection, schedule: Q04DX003 (ip), vehicle: carboxymethylcellulose (CMC) 92 % of control | dose: 20.0 mg/kg/injection, schedule: Q01DX001 (ip), vehicle: carboxymethylcellulose (CMC) 100 % of control | dose: 20.0 mg/kg/injection, schedule: Q01DX009 (ip), vehicle: carboxymethylcellulose (CMC) 91 % of control | dose: 20.0 mg/kg/injection, schedule: Q04DX003 (ip), vehicle: carboxymethylcellulose (CMC) 94 % of control | dose: 40.0 mg/kg/injection, schedule: Q01DX001 (ip), vehicle: carboxymethylcellulose (CMC) 103 % of control | dose: 40.0 mg/kg/injection, schedule: Q04DX003 (ip), vehicle: carboxymethylcellulose (CMC) 94 % of control

c1ccc(C2(N3CCC4(CC3)OCCO4)CCCCC2)cc1
inactive: [15] 102 % of control | [16] 105 % of control

O=C(O)COc1ccc2ccccc2c1Cl
inactive: [15] 86 % of control | [16] 89 % of control | dose: 400.0 mg/kg/injection, schedule: Q04DX002 (ip), vehicle: Klucel (hydroxypropylcellulose) (HPC) 92 % of control

CCCCCCN1C(=O)c2ccccc2S1(=O)=O
inactive: dose: 222.0 mg/kg/injection, schedule: Q01DX Z (ip), vehicle: methylcellulose (MC) 101 % of control | dose: 333.0 mg/kg/injection, schedule: Q01DX Z (ip), vehicle: methylcellulose (MC) 113 % of control | dose: 500.0 mg/kg/injection, schedule: Q01DX Z (ip), vehicle: methylcellulose (MC) 100 % of control

Fc1c(F)c(F)c(S/C=C/c2ccccc2)c(F)c1F
inactive: [11] 96 % of control | [12] 118 % of control | [13] 105 % of control

CCCCCCCCCCCCC1CC2CCCCC2C2CCCCC12 (stereo not given)
inactive: [8] 95 % of control | [9] 97 % of control | [10] 89 % of control

CCC(C)Sc1ccc(C)cc1 (stereo not given)
inactive: dose: 75.0 mg/kg/injection, schedule: Q01DX009 (ip), vehicle: Klucel (hydroxypropylcellulose) (HPC) 98 % of control | [14] 102 % of control | dose: 300.0 mg/kg/injection, schedule: Q01DX009 (ip), vehicle: Klucel (hydroxypropylcellulose) (HPC) 93 % of control

From PubChem BioAssay AID248 (DTP/NCI, 2004)
